Measured values taken from ChEMBL document CHEMBL3865816, “Design, synthesis and biological evaluation of novel azaspiro analogs of linezolid as antibacterial and antitubercular agents” (Eur J Med Chem, 2016).
In brackets after ≈: the same amount, converted by molar mass.

Tests used:
Assay type in all cases: functional
Pseudomonas aeruginosa [1] = assay: Antibacterial activity against Pseudomonas aeruginosa NCIM 2036 measured after 8 hrs by spectrophotometric method; conditions: NCIM 2036, 8 h
Staphylococcus aureus [2] = assay: Antibacterial activity against Staphylococcus aureus NCIM 2079 measured after 12 hrs by spectrophotometric method; conditions: NCIM 2079, 12 h
Escherichia coli [3] = assay: Antibacterial activity against Escherichia coli NCIM 2688 measured after 8 hrs by spectrophotometric method; conditions: NCIM 2688, 8 h
Bacillus subtilis [4] = assay: Antibacterial activity against Bacillus subtilis NCIM 2010 measured after 12 hrs by spectrophotometric method; conditions: NCIM 2010, 12 h
[5] = system: Mycobacterium tuberculosis; assay: Antitubercular activity against active stage Mycobacterium tuberculosis H37Ra measured after 8 days by XTT assay; conditions: 192 h
[6] = system: Mycobacterium tuberculosis; assay: Antitubercular activity against dormant stage Mycobacterium tuberculosis H37Ra measured after 12 days by XTT assay; conditions: 288 h
Escherichia coli [7] = assay: Antibacterial activity against Escherichia coli NCIM 2688 at 30 ug/ml measured after 8 hrs by spectrophotometric method; conditions: NCIM 2688, 8 h
Escherichia coli [8] = assay: Antibacterial activity against Escherichia coli NCIM 2688 at 10 ug/ml measured after 8 hrs by spectrophotometric method; conditions: NCIM 2688, 8 h
Escherichia coli [9] = assay: Antibacterial activity against Escherichia coli NCIM 2688 at 3 ug/ml measured after 8 hrs by spectrophotometric method; conditions: NCIM 2688, 8 h
Pseudomonas aeruginosa [10] = assay: Antibacterial activity against Pseudomonas aeruginosa NCIM 2036 at 30 ug/ml measured after 8 hrs by spectrophotometric method; conditions: NCIM 2036, 8 h
Pseudomonas aeruginosa [11] = assay: Antibacterial activity against Pseudomonas aeruginosa NCIM 2036 at 10 ug/ml measured after 8 hrs by spectrophotometric method; conditions: NCIM 2036, 8 h
Pseudomonas aeruginosa [12] = assay: Antibacterial activity against Pseudomonas aeruginosa NCIM 2036 at 3 ug/ml measured after 8 hrs by spectrophotometric method; conditions: NCIM 2036, 8 h
Staphylococcus aureus [13] = assay: Antibacterial activity against Staphylococcus aureus NCIM 2079 at 30 ug/ml measured after 12 hrs by spectrophotometric method; conditions: NCIM 2079, 12 h
Staphylococcus aureus [14] = assay: Antibacterial activity against Staphylococcus aureus NCIM 2079 at 10 ug/ml measured after 12 hrs by spectrophotometric method; conditions: NCIM 2079, 12 h
Staphylococcus aureus [15] = assay: Antibacterial activity against Staphylococcus aureus NCIM 2079 at 3 ug/ml measured after 12 hrs by spectrophotometric method; conditions: NCIM 2079, 12 h
Bacillus subtilis [16] = assay: Antibacterial activity against Bacillus subtilis NCIM 2010 at 30 ug/ml measured after 12 hrs by spectrophotometric method; conditions: NCIM 2010, 12 h
Bacillus subtilis [17] = assay: Antibacterial activity against Bacillus subtilis NCIM 2010 at 10 ug/ml measured after 12 hrs by spectrophotometric method; conditions: NCIM 2010, 12 h
Bacillus subtilis [18] = assay: Antibacterial activity against Bacillus subtilis NCIM 2010 at 3 ug/ml measured after 12 hrs by spectrophotometric method; conditions: NCIM 2010, 12 h
[19] = system: Mycobacterium tuberculosis; assay: Antitubercular activity against dormant stage Mycobacterium tuberculosis H37Ra at 30 ug/ml measured after 12 days by XTT assay; conditions: 288 h
[20] = system: Mycobacterium tuberculosis; assay: Antitubercular activity against dormant stage Mycobacterium tuberculosis H37Ra at 10 ug/ml measured after 12 days by XTT assay; conditions: 288 h
[21] = system: Mycobacterium tuberculosis; assay: Antitubercular activity against dormant stage Mycobacterium tuberculosis H37Ra at 3 ug/ml measured after 12 days by XTT assay; conditions: 288 h

| Structure (SMILES) | IC50 (Pseudomonas aeruginosa [1]) | MIC (Pseudomonas aeruginosa [1]) | IC50 (Staphylococcus aureus [2]) | MIC (Staphylococcus aureus [2]) | IC50 (Escherichia coli [3]) | MIC (Escherichia coli [3]) | IC50 (Bacillus subtilis [4]) | MIC (Bacillus subtilis [4]) | IC50 [5] | MIC [5] | IC50 [6] | MIC [6] | inhibition at 30 µg/mL (Escherichia coli [7]) | inhibition at 10 µg/mL (Escherichia coli [8]) | inhibition at 3 µg/mL (Escherichia coli [9]) | inhibition at 30 µg/mL (Pseudomonas aeruginosa [10]) | inhibition at 10 µg/mL (Pseudomonas aeruginosa [11]) | inhibition at 3 µg/mL (Pseudomonas aeruginosa [12]) | inhibition at 30 µg/mL (Staphylococcus aureus [13]) | inhibition at 10 µg/mL (Staphylococcus aureus [14]) | also measured |
| --- | --- | --- | --- | --- | --- | --- | --- | --- | --- | --- | --- | --- | --- | --- | --- | --- | --- | --- | --- | --- | --- |
| CC(=O)OCC(=O)NC[C@H]1CN(c2ccc(N3CC4(COC4)C3)c(F)c2)C(=O)O1 | > 100 µg/mL | > 100 µg/mL | 0.75 µg/mL (≈ 1.84 µM) | 8.4 µg/mL (≈ 20.6 µM) | > 100 µg/mL | > 100 µg/mL | > 100 µg/mL | > 100 µg/mL | 3.24 µg/mL (≈ 7.95 µM) | 7.8 µg/mL (≈ 19.1 µM) | 6.69 µg/mL (≈ 16.4 µM) | 10.6 µg/mL (≈ 26.1 µM) | 89.1% | 63.9% | 49.4% | 58.3% | 42.8% | 22.8% | 98.2% | 93.9% | inhibition at 3 µg/mL (Staphylococcus aureus [15]): 82.5%; inhibition at 30 µg/mL (Bacillus subtilis [16]): 99.3%; inhibition at 10 µg/mL (Bacillus subtilis [17]): 73.6%; inhibition at 3 µg/mL (Bacillus subtilis [18]): 43.6%; inhibition at 30 µg/mL [19]: 88.9%; inhibition at 10 µg/mL [20]: 4.03%; inhibition at 3 µg/mL [21]: -16.6% |
| O=C(NC[C@H]1CN(c2ccc(N3CC4(COC4)C3)c(F)c2)C(=O)O1)c1ccno1 | 0.51 µg/mL (≈ 1.27 µM) | 2.57 µg/mL (≈ 6.39 µM) | 0.88 µg/mL (≈ 2.19 µM) | 2.05 µg/mL (≈ 5.09 µM) | 0.71 to 0.72 µg/mL (≈ 1.76 to 1.79 µM) | 4.56 to 4.6 µg/mL (≈ 11.3 to 11.4 µM) | 0.49 µg/mL (≈ 1.22 µM) | 2.35 µg/mL (≈ 5.84 µM) | 6.4 µg/mL (≈ 15.9 µM) | 10.9 µg/mL (≈ 27.1 µM) | 9.58 µg/mL (≈ 23.8 µM) | 21.2 µg/mL (≈ 52.8 µM) | 99.9% | 93.3% | 88.3% | 98.9% | 94.9% | 90.8% | 98.5% | 98.2% | inhibition at 3 µg/mL (Staphylococcus aureus [15]): 95.1%; inhibition at 30 µg/mL (Bacillus subtilis [16]): 100%; inhibition at 10 µg/mL (Bacillus subtilis [17]): 97.3%; inhibition at 3 µg/mL (Bacillus subtilis [18]): 90.5%; inhibition at 30 µg/mL [19]: 95.4%; inhibition at 10 µg/mL [20]: 18.2%; inhibition at 3 µg/mL [21]: 4.35% |
| CC(=O)NC[C@H]1CN(c2ccc(N3CC4(COC4)C3)c(F)c2)C(=O)O1 | 0.58 µg/mL (≈ 1.66 µM) | 6.4 µg/mL (≈ 18.3 µM) | 0.53 µg/mL (≈ 1.52 µM) | 2.9 µg/mL (≈ 8.3 µM) | > 100 µg/mL | > 100 µg/mL | 0.65 µg/mL (≈ 1.86 µM) | 3.46 µg/mL (≈ 9.9 µM) | 1.56 µg/mL (≈ 4.47 µM) | 2.55 µg/mL (≈ 7.3 µM) | 2.07 µg/mL (≈ 5.93 µM) | 3.1 µg/mL (≈ 8.87 µM) | 28.8% | 17.4% | 3.06% | 98.5% | 91.9% | 85.5% | 99.5% | 91.8% | inhibition at 3 µg/mL (Staphylococcus aureus [15]): 90.4%; inhibition at 30 µg/mL (Bacillus subtilis [16]): 100%; inhibition at 10 µg/mL (Bacillus subtilis [17]): 95.4%; inhibition at 3 µg/mL (Bacillus subtilis [18]): 88.8%; inhibition at 30 µg/mL [19]: 95.2%; inhibition at 10 µg/mL [20]: 94.7%; inhibition at 3 µg/mL [21]: 15.1% |
| CC(=O)NC[C@H]1CN(c2ccc(C3=C[C@H]4CC[C@@H](C3)N4C(=O)OC(C)(C)C)c(F)c2)C(=O)O1 | 0.67 µg/mL (≈ 1.46 µM) | 15.1 µg/mL (≈ 32.8 µM) | 0.74 µg/mL (≈ 1.61 µM) | 2.95 µg/mL (≈ 6.42 µM) | 0.57 µg/mL (≈ 1.24 µM) | 3.66 µg/mL (≈ 7.96 µM) | 0.55 µg/mL (≈ 1.2 µM) | 5.67 µg/mL (≈ 12.3 µM) | 12.3 µg/mL (≈ 26.8 µM) | 21.4 µg/mL (≈ 46.6 µM) | 10.8 µg/mL (≈ 23.6 µM) | 20.5 µg/mL (≈ 44.6 µM) | 98.7% | 94.4% | 89.2% | 93.9% | 88.3% | 83.8% | 99.1% | 97.9% | inhibition at 3 µg/mL (Staphylococcus aureus [15]): 90.5%; inhibition at 30 µg/mL (Bacillus subtilis [16]): 99.1%; inhibition at 10 µg/mL (Bacillus subtilis [17]): 97.3%; inhibition at 3 µg/mL (Bacillus subtilis [18]): 85.7%; inhibition at 30 µg/mL [19]: 94.2%; inhibition at 10 µg/mL [20]: 79.6%; inhibition at 3 µg/mL [21]: 34.8% |
| O=C1O[C@@H](CNC(=S)Nc2ccccc2F)CN1c1ccc(N2CC3(COC3)C2)c(F)c1 | 0.98 µg/mL (≈ 2.13 µM) | 15.9 µg/mL (≈ 34.5 µM) | 0.6 µg/mL (≈ 1.3 µM) | 5.76 µg/mL (≈ 12.5 µM) | > 100 µg/mL | > 100 µg/mL | 1.31 µg/mL (≈ 2.84 µM) | 5.18 µg/mL (≈ 11.2 µM) | 16.3 µg/mL (≈ 35.5 µM) | 41.1 µg/mL (≈ 89.3 µM) | 22.8 µg/mL (≈ 49.6 µM) | 41.6 µg/mL (≈ 90.4 µM) | 51.9% | 42.8% | 25% | 96% | 87.4% | 77.8% | 99.3% | 95.7% | inhibition at 3 µg/mL (Staphylococcus aureus [15]): 85.9%; inhibition at 30 µg/mL (Bacillus subtilis [16]): 101%; inhibition at 10 µg/mL (Bacillus subtilis [17]): 96.6%; inhibition at 3 µg/mL (Bacillus subtilis [18]): 81%; inhibition at 30 µg/mL [19]: 87.6%; inhibition at 10 µg/mL [20]: 57.4%; inhibition at 3 µg/mL [21]: 25.1% |
| CC(=O)NC[C@H]1CN(c2ccc(N3CCOCC3)c(F)c2)C(=O)O1 [LINEZOLID] | 0.49 µg/mL (≈ 1.45 µM) | 1.31 µg/mL (≈ 3.88 µM) | 0.42 µg/mL (≈ 1.24 µM) | 1.13 µg/mL (≈ 3.35 µM) | 0.49 µg/mL (≈ 1.45 µM) | 1.15 µg/mL (≈ 3.41 µM) | 0.64 µg/mL (≈ 1.9 µM) | 1.8 µg/mL (≈ 5.34 µM) | 0.8 µg/mL (≈ 2.37 µM) | 1.31 µg/mL (≈ 3.88 µM) | 0.71 µg/mL (≈ 2.1 µM) | 1.25 µg/mL (≈ 3.71 µM) | 100% | 99.8% | 99.3% | 99.9% | 99% | 99.2% | 99.1% | 99.5% | inhibition at 3 µg/mL (Staphylococcus aureus [15]): 99.5%; inhibition at 30 µg/mL (Bacillus subtilis [16]): 99.8%; inhibition at 10 µg/mL (Bacillus subtilis [17]): 99.4%; inhibition at 3 µg/mL (Bacillus subtilis [18]): 98.9%; inhibition at 30 µg/mL [19]: 95.5%; inhibition at 10 µg/mL [20]: 96.6%; inhibition at 3 µg/mL [21]: 84% |
